Reference: US20060154990A1, “Use of MEK inhibitors in treating abnormal cell growth” (AGOURON PHARMACEUTICALS, INC., priority 2004, published 2006)
“And” between values parts separate entries of the source, which are not always exact repeats. Equal entries are not always repeated. Marks after values point to notes of the source that are not given here.

Tests used:
[1] = Maximum tolerated dose and lethality in mice
[2] = Metabolites of [14C] Compound 1 in liver microsomes; format: in vitro ADME, human; conditions: [C-14] Compound 1 10 μM, 90 mins
Experimental: (§1) Incubations were performed in hepatocytes for 3 hours and liver microsomes for 1.5 hours and were stopped with the addition of methanol. HPLC, in conjuction with ionspray 3D iontrap mass spectrometry, and simultaneous radioactive monitoring were used to detect and identify the resulting metabolites.
(§2) This acid cleavage product is further metabolized to form hydroxylated (M 11, 16% in rat) and hydroxylated, defluorinated products (M 17, 19% in rat).

pERK in tumor biopsies = experiment: Immunohistochemical analysis of pERK in paired tumor biopsies; conditions: for pERK Post-Treatment: H-score
Text: The phosphorylation status of ERK can be assessed through antibody-based detection methods, utilizing phosphorylation site-specific antibodies. […] The biopsy tissues were paraffin-embedded following standard tissue processing. The antibody used for detection of pERK was the mouse monoclonal anti-MAP kinase (activated) antibody, manufactured by Sigma-Aldrich Co. (catalog number: M8159). This antibody is reacts specifically with the dually phosphorylated form of MAPK (both the ERK-1 and ERK-2 forms). Tissue sections prepared from the paraffin blocks were pretreated with Heat-induced Epitope Retrieval conditions (3 minutes at 120° C.) prior to the detection procedure. […] Staining intensity was grouped in categories from 0 to 3+, with 0 being little or no staining, and 3 being the most intense staining. […] For each biopsy specimen, 2 sections were analyzed and the average of these was taken for the pERK H-score. In addition to H-scores, the total % of positive cells was also recorded.

[3] = system: ERK phosphorylation in MDCK cells; experiment: cells; conditions: Canis lupus familiaris, 1 h, read-out: Cellular IC50
[4] = system: RXF-393 renal cell carcinoma; experiment: Antitumor activity in RXF-393 tumor model; format: in vivo, mice; conditions: oral 25 mg/kg once a day, euthanized on day 8 of dosing
[5] = Metabolites of [14C] Compound 1 in liver microsomes; format: in vitro ADME, dog; conditions: [C-14] Compound 1 10 μM, 90 mins
Experimental: as §1, §2

[6] = system: BxPc-3 pancreatic xenograft; experiment: Antitumor activity in BxPc-3 tumor model; format: in vivo, mice; conditions: oral 25 mg/kg once a day for 14 days
[7] = system: C26 mouse colon carcinoma; experiment: Antitumor activity against C26 mouse colon carcinoma
[8] = Metabolites of [14C] Compound 1 in liver microsomes; format: in vitro ADME, rat; conditions: [C-14] Compound 1 10 μM, 90 mins
Experimental: as §1, §2

[9] = system: advanced cancer (breast, colon, NSCLC, melanoma); experiment: Phase 1/2 clinical study: tumor response (RECIST); conditions: for Clinical Response: individual patient
HT-29 colon xenograft = experiment: Antitumor activity in HT-29 tumor model; format: in vivo, mice; conditions: oral 25 mg/kg once a day for 14 days
[10] = 1 mg BID, melanoma, individual patients
[11] = 1 mg QD, breast, individual patient
[12] = 1 mg QD, melanoma, individual patients
[13] = 2 mg BID, colon, individual patient
[14] = 2 mg BID, lung, individual patient
[15] = 2 mg BID, melanoma, individual patients
[16] = 4 mg BID, lung, individual patient
[17] = 4 mg BID, melanoma, individual patient
[18] = 8 mg BID, breast, individual patient
[19] = 15 mg BID, breast, individual patient
[20] = 15 mg BID, melanoma, individual patient
[21] = 20 mg BID continuous, melanoma, individual patients
[22] = 20 mg BID, melanoma, individual patient
[23] = 30 mg BID, colon, individual patient
[24] = 30 mg BID, melanoma, individual patients
[25] = C26, MTD 25 mg/kg/d oral 14 days
[26] = C26, oral BID D9-22, 1.56 mg/kg/dose
[27] = C26, oral BID D9-22, 3.125 mg/kg/dose
[28] = C26, oral BID D9-22, 6.25 mg/kg/dose
[29] = C26, oral BID D9-22, 12.5 mg/kg/dose
[30] = C26, oral BID D9-22, 12.5 mg/kg/dose (toxic)
[31] = C26, oral QD D9-22, 3.125 mg/kg/dose
[32] = C26, oral QD D9-22, 6.25 mg/kg/dose
[33] = C26, oral QD D9-22, 12.5 mg/kg/dose
[34] = C26, oral QD D9-22, 25 mg/kg/dose
[35] = C26 colon, oral 25 mg/kg once a day for 14 days
[36] = Colon26, 25 mg/kg PO QD Days 11-24 (MTD)
[37] = Colon26, 100 mg/kg IV QD Days 8-12, 15-19 (MTD)

Structure (SMILES): O=C(NOC[C@H](O)CO)c1ccc(F)c(F)c1Nc1ccc(I)cc1F [Compound 1, N-[(R)-2,3-dihydroxy-propoxy]-3,4-difluoro-2-(2-fluoro-4-iodo-phenylamino)-benzamide]
- MTD at 14 days ([1]; BALB/c and SCID, mouse, in vivo, po): 25 mg/kg/day and 25 mg/kg
- deaths or weight loss ([1]; mice, 25 mg/kg oral daily for 14 days): no deaths or weight loss
- LD10 ([1]; mice, IV regimen): 100 mg/kg
- Deaths ([1]; mice, oral daily dosing of 50 mg/kg, sixth day of treatment): 5 out of 8
- % ROI Human [2]: 77.36%
- pERK % Reduction from Baseline (pERK in tumor biopsies; [10]): −65% and 0%
- pERK % Reduction from Baseline (pERK in tumor biopsies; [11]): −4%
- pERK % Reduction from Baseline (pERK in tumor biopsies; [12]): −93% and 0%
- pERK % Reduction from Baseline (pERK in tumor biopsies; [13]): 0%
- pERK % Reduction from Baseline (pERK in tumor biopsies; [14]): −95%
- pERK % Reduction from Baseline (pERK in tumor biopsies; [15]): −97% and −100%
- pERK % Reduction from Baseline (pERK in tumor biopsies; [16]): −100%
- pERK % Reduction from Baseline (pERK in tumor biopsies; [17]): −70%
- pERK % Reduction from Baseline (pERK in tumor biopsies; [18]): −93%
- pERK % Reduction from Baseline (pERK in tumor biopsies; [19]): −9%
- pERK % Reduction from Baseline (pERK in tumor biopsies; [20]): −100%
- pERK % Reduction from Baseline (pERK in tumor biopsies; [21]): −100% and −72% and −18%
- pERK % Reduction from Baseline (pERK in tumor biopsies; [22]): −100%
- pERK % Reduction from Baseline (pERK in tumor biopsies; [23]): −91%
- pERK % Reduction from Baseline (pERK in tumor biopsies; [24]): −4% and −87%
- pERK Post-Treatment (pERK in tumor biopsies; [10]): 45 and 40
- pERK Post-Treatment (pERK in tumor biopsies; [11]): 135
- pERK Post-Treatment (pERK in tumor biopsies; [12]): 3 and 78
- pERK Post-Treatment (pERK in tumor biopsies; [13]): 12
- pERK Post-Treatment (pERK in tumor biopsies; [14]): 8
- pERK Post-Treatment (pERK in tumor biopsies; [15]): 10 and 0
- pERK Post-Treatment (pERK in tumor biopsies; [16]): 0
- pERK Post-Treatment (pERK in tumor biopsies; [17]): 50
- pERK Post-Treatment (pERK in tumor biopsies; [18]): 5
- pERK Post-Treatment (pERK in tumor biopsies; [19]): 150
- pERK Post-Treatment (pERK in tumor biopsies; [20]): 0
- pERK Post-Treatment (pERK in tumor biopsies; [21]): 0 and 23 and 45
- pERK Post-Treatment (pERK in tumor biopsies; [22]): 1
- pERK Post-Treatment (pERK in tumor biopsies; [23]): 3
- pERK Post-Treatment (pERK in tumor biopsies; [24]): 70 and 15
- IC50 [3]: 0.31 nM
- CR (complete responder) [4]: 0/10
- PR (partial responder) [4]: 0/10
- Tumor Free [4]: 0/10
- % ROI Dog [5]: 81.16%
- CR (complete responder) [6]: 2/10
- PR (partial responder) [6]: 8/10
- T − C [6]: 20.6 days
- Tumor Free [6]: 0/10
- animals showing complete response [7, 25]: 70%
- animals showing either a complete or partial response [7, 25]: 100%
- animals showing partial response [7, 25]: 30%
- CR (complete response) [7, 26]: 4 of 5 and 4/5
- Net Log10 kill [7, 26]: 0.0
- Non-specific Deaths [7, 26]: 0/5
- PR (partial response) [7, 26]: 1/5
- T − C [7, 26]: 13.1 days
- Tumor Free [7, 26]: 0/5
- CR (complete response) [7, 27]: 4/5
- Net Log10 kill [7, 27]: 0.3
- Non-specific Deaths [7, 27]: 0/5
- PR (partial response) [7, 27]: 1/5
- T − C [7, 27]: 15.2 days
- Tumor Free [7, 27]: 0/5
- CR (complete response) [7, 28]: 5/5
- Net Log10 kill [7, 28]: 0.3
- Non-specific Deaths [7, 28]: 0/5
- PR (partial response) [7, 28]: 0/5
- T − C [7, 28]: 15.7 days
- Tumor Free [7, 28]: 0/5
- Net Log10 kill [7, 29]: Toxic
- Non-specific Deaths [7, 29]: 4/5^h
- T − C [7, 29]: Toxic
- Tumor Free [7, 29]: Toxic
- CR (complete response) [7, 30]: 5/5 Toxic
- PR (partial response) [7, 30]: 0/5 Toxic
- CR (complete response) [7, 31]: 1 of 5 and 1/5
- Net Log10 kill [7, 31]: −0.1
- Non-specific Deaths [7, 31]: 0/5
- PR (partial response) [7, 31]: 4/5
- T − C [7, 31]: 12.1 days
- Tumor Free [7, 31]: 0/5
- CR (complete response) [7, 32]: 3/5
- Net Log10 kill [7, 32]: 0.0
- Non-specific Deaths [7, 32]: 0/5
- PR (partial response) [7, 32]: 2/5
- T − C [7, 32]: 12.9 days
- Tumor Free [7, 32]: 0/5
- CR (complete response) [7, 33]: 5/5
- Net Log10 kill [7, 33]: 0.2
- Non-specific Deaths [7, 33]: 0/5
- PR (partial response) [7, 33]: 0/5
- T − C [7, 33]: 15.0 days
- Tumor Free [7, 33]: 0/5
- CR (complete response) [7, 34]: 5/5
- Net Log10 kill [7, 34]: 0.3
- Non-specific Deaths [7, 34]: 0/5
- PR (partial response) [7, 34]: 0/5
- T − C [7, 34]: 15.3 days
- Tumor Free [7, 34]: 0/5
- CR (complete responder) [7, 35]: 7/10
- PR (partial responder) [7, 35]: 3/10
- T − C [7, 35]: 15.4 days
- Tumor Free [7, 35]: 0/10
- Tumor growth delay ([7]; C26 tumor, 25 mg/kg oral once a day for 14 days (MTD)): 15.4 days
- Total daily dose producing 70% complete tumor responses ([7]; C26 tumor, oral for 14 days): 25 mg/kg
- CR [7, 36]: 10/10
- Deaths [7, 36]: 0/10
- Net Log Kill [7, 36]: 0.2
- PR [7, 36]: 0/10
- T − C [7, 36]: 12.6 days
- CR [7, 37]: 9/10
- Deaths [7, 37]: 1/10
- Net Log Kill [7, 37]: 0.6
- PR [7, 37]: 1/10
- T − C [7, 37]: 15.8 days
- % ROI Rat [8]: 52.30%
- Clinical Response ([9]; 2 mg BID, colon, cell wraps: stable disease): stable
- Clinical Response ([9]; 2 mg BID, melanoma, cell wraps: stable disease): stable
- Clinical Response ([9]; 4 mg BID, lung, cell wraps: stable disease): stable
- Clinical Response ([9]; 4 mg BID, melanoma, cell wraps: stable disease): stable
- Clinical Response ([9]; 15 mg BID, breast, cell wraps: stable disease): stable
- Clinical Response ([9]; 20 mg BID continuous, melanoma, cell wraps: stable disease): stable
- Clinical Response ([9]; 20 mg BID, melanoma, cell wraps: partial response): partial
- Clinical Response ([9]; 30 mg BID, melanoma, cell wraps: stable disease): stable
- Patients with stable disease ([9]; of 42 patients treated): 10
- Partial responses ([9]; of 42 patients treated, melanoma): 2
- CR (complete responder) (HT-29 colon xenograft): 0/10
- PR (partial responder) (HT-29 colon xenograft): 0/10
- Tumor Free (HT-29 colon xenograft): 0/10
